Patent publication US20240122180A1, “FUNGICIDAL HALOMETHYL KETONES AND HYDRATES AND THEIR MIXTURES” (FMC Corporation, priority 2020, published 2024)

What was measured:
[1] = system: Phakopsora pachyrhizi (the causal agent of Asian soybean rust); test: Test A: preventive spray on soybean seedlings, visual disease rating (100 = 100% control; * 50 ppm, ** 10 ppm, *** 250 ppm); assay type: in vivo; conditions: 100 = 100% disease control
Excerpt: (§1) General protocol for preparing test suspensions for Tests A-E: the test compounds were first dissolved in acetone in an amount equal to 3% of the final volume and then suspended at the desired concentration (in ppm) in acetone and purified water (50/50 mix by volume) containing 250 ppm of the surfactant […] (polyhydric alcohol esters). The resulting test suspensions were then used in Tests A-E.
(§2) The test solution was sprayed to the point of run-off on soybean seedlings. The following day the seedlings were inoculated with a spore suspension of Phakopsora pachyrhizi (the causal agent of Asian soybean rust) and incubated in a saturated atmosphere at 22° C. for 24 h, and then moved to a growth chamber at 22° C. for 8 days, after which time visual disease ratings were made.
(§3) Results for Tests A-E are given in Table A. In the Table, a rating of 100 indicates 100% disease control and a rating of 0 indicates no disease control (relative to the controls). An asterisk “*” or a double asterisk “**” or a triple asterisk “***” next to the rating value indicates a 50 ppm, 10 ppm and 250 ppm test suspension was used, respectively. A dash (-) indicates the compound was not tested.

[2] = system: Puccinia recondita f. sp. tritici (the causal agent of wheat leaf rust); test: Test B: preventive spray on wheat seedlings, disease rating (100 = 100% control; * 50 ppm, ** 10 ppm, *** 250 ppm); assay type: in vivo; conditions: 100 = 100% disease control
Excerpt: as §1
as §2, with “wheat” for “soybean”, “Puccinia recondita f. sp. tritici” for “Phakopsora pachyrhizi”, “wheat leaf” for “Asian soybean”, “20°” for “22°”, “6” for “8”, “time” for “time visual”
as §3

[3] = 10 ppm test suspension, soybean seedlings
[4] = 10 ppm test suspension, wheat seedlings
[5] = 50 ppm test suspension, 0 = no control
[6] = 10 ppm test suspension, 0 = no control
[7] = 50 ppm test suspension, soybean seedlings
[8] = 50 ppm test suspension, wheat seedlings
[9] = Phakopsora pachyrhizi, 10 ppm test suspension, 0 = no control
[10] = Puccinia recondita, 10 ppm test suspension, 0 = no control

SMILES | Test A disease control rating [1, 3] | Test B disease control rating [2, 4] | further results
CCO/C(=C\Oc1ccc(S(=O)(=O)N(C)C)cc1)C(F)(F)F [compound 61] | 0% | 0% | 
CCOC(=COc1ccc(CC2CC(C(=O)N(C)C)=NO2)cc1)C(F)(F)F (centres unmarked) [compound 288] |  |  | Test A disease control rating [1, 5]: 96%; Test B disease control rating [2, 5]: 0%
CCOC(=O)c1cnn(CCc2cccc(O/C=C(\OCC)C(F)(F)F)c2)c1 [compound 345] |  |  | Test A disease control rating [1, 6]: 0%; Test B disease control rating [2, 6]: 0%
O=C(OCC1CCCCC1)c1cnn(Cc2ccc(OCC3(C(F)(F)F)OCCO3)cc2)c1 [compound 272] |  |  | Test A disease control rating [1, 6]: 100%; Test B disease control rating [2, 6]: 0%
CCO/C(=C\Oc1ccc(Cn2cc(C(=O)OC(C)C)cn2)cc1)C(F)(F)F [compound 139] | 100% | 0% | 
CN(C)C(=O)C1=NOC(Cc2ccc(OCC3(C(F)(F)F)OCCO3)cc2)C1 (centres unmarked) [compound 290] |  |  | Test A disease control rating [1, 5]: 50%; Test B disease control rating [2, 5]: 19%
CCO/C(=C\Oc1ccc(Cn2cnc(C(=O)OC)n2)cc1)C(F)(F)F [compound 123] | 98% | 0% | 
CCOC(=O)C1=NOC(c2ccc(O/C=C(\OCC)C(F)(F)F)cc2)C1 (centres unmarked) [compound 278] |  |  | Test A disease control rating [1, 5]: 94%; Test B disease control rating [2, 5]: 0%
CCOC(=O)c1cnn(CCc2ccc(OCC3(C(F)(F)F)OCCO3)cc2)c1 [compound 133] | 79% | 0% | 
CCCC(=O)N(Cc1ccc(OCC2(C(F)(F)F)OCCO2)cc1)OC [compound 237] | 97% | 0% | 
CCO/C(=C\Oc1ccc(CNS(=O)(=O)CC)cc1)C(F)(F)F [compound 149] | 0% | 0% | 
CS(=O)(=O)c1ccc(OCC2(C(F)(F)F)OCCO2)cc1 [compound 24] | 81% | 91% | 
C=C(C)COC(=O)c1cnn(Cc2ccc(OCC3(C(F)(F)F)OCCO3)cc2)c1 [compound 228] | 100% | 0% | 
CCO/C(=C\Oc1ccc(Cn2cc(C#N)cn2)cc1)C(F)(F)F [compound 205] | 0% | 0% | 
CCO/C(=C\Oc1ccc(CNC(=O)CC)cc1)C(F)(F)F [compound 150] | 33% | 0% | 
CCO/C(=C\Oc1ccc(Cc2nc(C(=O)NCC(F)(F)F)cs2)cc1)C(F)(F)F [compound 129] | 100% | 0% | 
CN(C)S(=O)(=O)c1ccc(OCC(O)(O)C(F)(F)F)cc1 [compound 34] | 0% | 80% | 
N#Cc1cnn(Cc2ccc(OCC3(C(F)(F)F)OCCO3)cc2)c1 [compound 209] | 89% | 0% | 
CCO/C(=C\Oc1ccc(C=O)cc1)C(F)(F)F [compound 148] | 0% | 0% | 
CCOC(=O)c1cnn(Cc2ccc(OCC3(C(F)(F)F)OC(=O)C(C)O3)cc2)c1 (centres unmarked) [compound 187] | 93% | 74% | 
CCOC(=O)c1cnn(Cc2ccc(NCC3(C(F)(F)F)OCCO3)cc2)c1 [compound 443] |  |  | Test A disease control rating [1, 5]: 48%; Test B disease control rating [2, 5]: 0%
CCOC(=O)C=CCOc1ccc(OCC(O)(O)C(F)(F)F)cc1 [compound 97] |  |  | Test A disease control rating [1, 7]: 94%; Test B disease control rating [2, 8]: 0%
CCO/C(=C\Oc1ccc(C(=O)OC)cc1)C(F)(F)F [compound 230] | 0% | 0% | 
CCO/C(=C\Oc1ccc(Cn2ccc(C(=O)OCC3CCC3)n2)cc1)C(F)(F)F [compound 361] |  |  | Test A disease control rating [1, 6]: 100%; Test B disease control rating [2, 6]: 0%
CCO/C(=C\Oc1ccc(CCn2cc(C(=O)OC)cn2)cc1)C(F)(F)F [compound 354] |  |  | Test A disease control rating [1, 6]: 100%; Test B disease control rating [2, 6]: 0%
CCOC(=O)c1csc(Cc2ccc(OCC3(C(F)(F)F)OCCO3)cc2)n1 [compound 137] | 79% | 0% | 

SMILES | Test A disease control rating [1, 3] | Test B disease control rating [2, 4] | further results
CCOC(=O)c1cncn1Cc1cccc(O/C=C(\OCC)C(F)(F)F)c1 [compound 447] |  |  | pest or weed control at 10 ppm [1, 9]: 0%; pest or weed control at 10 ppm [2, 10]: 0%
CCO/C(=C\Oc1cccc(Cc2nc(C(=O)NCC(F)F)cs2)c1)C(F)(F)F [compound 398] |  |  | pest or weed control at 10 ppm [1, 9]: 0%; pest or weed control at 10 ppm [2, 10]: 0%
CCOC(=O)c1cnn(COc2cccc(OCC3(C(F)(F)F)OCCO3)c2)c1 [compound 353] |  |  | pest or weed control at 50 ppm ([1]; Phakopsora pachyrhizi, 50 ppm test suspension, 0 = no control): 0%; pest or weed control at 50 ppm ([2]; Puccinia recondita, 50 ppm test suspension, 0 = no control): 0%
CCOC(=O)c1cnn(Cc2ccc(O/C=C(\OC)C(F)(F)F)cc2)c1 [compound 53] |  |  | Test A disease control rating [1, 7]: 100%; Test B disease control rating [2, 8]: 67%
CCOC(=O)c1cn(Cc2ccc(O/C=C(\OCC)C(F)(F)F)cc2)cn1 [compound 153] | 100% | 0% | 
CCNC(=O)c1cnn(Cc2cccc(O/C=C(\OCC)C(F)(F)F)c2)c1 [compound 343] |  |  | Test A disease control rating [1, 6]: 0%; Test B disease control rating [2, 6]: 0%
CCO/C(=C\Oc1ccc(-c2noc(C(F)(F)F)n2)cc1)C(F)(F)F [compound 143] | 0% | 0% | 
CCOC(=COc1ccc(Cn2ccc(C(=O)OC)n2)cc1)C(F)(F)F [compound 251] | 100% | 9% | 
CCOC(=O)c1ccnn1Cc1ccc(OC)c(O/C=C(\OCC)C(F)(F)F)c1 [compound 463] |  |  | Test A disease control rating [1, 6]: 0%; Test B disease control rating [2, 6]: 0%
CCOC(=O)c1cnn(Cc2ccc(F)c(O/C=C(\OCC)C(F)(F)F)c2)c1 [compound 418] |  |  | Test A disease control rating [1, 6]: 0%; Test B disease control rating [2, 6]: 0%
CCO/C(=C\Oc1cccc(Cc2nc(C(=O)NCC(F)(F)F)cs2)c1)C(F)(F)F [compound 377] |  |  | pest or weed control at 10 ppm [1, 9]: 44%; pest or weed control at 10 ppm [2, 10]: 0%
CCOC(=O)Cc1nnn(Cc2ccc(O/C=C(\OCC)C(F)(F)F)cc2)n1 [compound 83] | 82% | 0% | 
C#CCOC(=O)c1cnn(Cc2cccc(O/C=C(\OCC)C(F)(F)F)c2)c1 [compound 336] |  |  | Test A disease control rating [1, 6]: 100%; Test B disease control rating [2, 6]: 0%
CN(C)S(=O)(=O)c1ccc(OCC2(C(F)(F)F)OCCO2)cc1 [compound 25] | 0% | 0% | 
CCCCOC(=O)c1cnn(Cc2ccc(OCC3(C(F)(F)F)OCCO3)cc2)c1 [compound 125] | 100% | 0% | 
CCO/C(=C\Oc1ccc(CNC(=O)C(C)OC)cc1)C(F)(F)F (centres unmarked) [compound 114] |  |  | Test A disease control rating [1, 7]: 44%; Test B disease control rating [2, 8]: 0%
CC(C)C(=O)NCc1ccc(OCC2(C(F)(F)F)OCCO2)cc1 [compound 175] | 0% | 0% | 
CS(=O)(=O)c1nccc(Cc2ccc(OCC3(C(F)(F)F)OCCO3)cc2)n1 [compound 282] |  |  | Test A disease control rating [1, 5]: 0%; Test B disease control rating [2, 5]: 0%
O=C(O)c1cnn(Cc2ccc(OCC3(C(F)(F)F)OCCO3)cc2)c1 [compound 93] | 96% | 0% | 
CCO/C(=C\Oc1ccc(Cn2cc(Cl)cn2)cc1)C(F)(F)F [compound 180] | 0% | 0% | 
CON(Cc1ccc(OCC2(C(F)(F)F)OCCO2)cc1)C(=O)C1CC1 [compound 236] | 75% | 0% | 
C#CCOC(=O)c1ccc(O/C=C(\OCC)C(F)(F)F)cc1 [compound 75] | 0% | 0% | 
O=C(OCC1OCCO1)c1cnn(Cc2ccc(OCC3(C(F)(F)F)OCCO3)cc2)c1 [compound 204] | 100% | 0% | 
CCOC(=O)c1cnn(CCCc2ccc(OCC3(C(F)(F)F)OCCO3)cc2)c1 [compound 296] |  |  | Test A disease control rating [1, 6]: 0%; Test B disease control rating [2, 6]: 0%
CCOC(=O)c1cnn(Cc2cc(C)cc(O/C=C(\OCC)C(F)(F)F)c2)c1 [compound 406] |  |  | Test A disease control rating [1, 5]: 0%; Test B disease control rating [2, 5]: 0%
CCOC(=COc1ccc(CN2CCC(C(=O)OC)C2)cc1)C(F)(F)F (centres unmarked) [compound 310] |  |  | Test A disease control rating [1, 6]: 100%; Test B disease control rating [2, 6]: 0%
